Reference: the supplement of paper PMC7840683
± gives the standard deviation of the averaged measurements.

Test system: HepaRG
Assay: LDH release cytotoxicity, % of total lysis control; higher = more cytotoxic
Conditions: 48 h
Summary of the method: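 Single-lot HepaRG cells on collagen I-coated 96-well plates were exposed for 48 h in duplicate, in serum-free induction medium with 0.5% DMSO, to eight-point half-log series (test chemicals top 100 µM). Total lysis wells received 0.1% Triton X, and LDH leakage into 50 µL spent medium was read as resorufin fluorescence (CytoTox-ONE, Tecan Safire). Percent cytotoxicity was normalized to on-plate vehicle and total lysis controls and averaged over the duplicates.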

Row | Structure (SMILES) | LDH release cytotoxicity (0.03162 µM) [%] | LDH release cytotoxicity (0.1 µM) [%] | LDH release cytotoxicity (0.3162278 µM) [%] | LDH release cytotoxicity (1 µM) [%] | LDH release cytotoxicity (3.16228 µM) [%] | LDH release cytotoxicity (10 µM) [%] | LDH release cytotoxicity (31.6228 µM) [%] | LDH release cytotoxicity (100 µM) [%] | also measured
1 | Nc1cccc2c(N)cccc12 [1,5-Naphthalenediamine] | -0.228 ± 0.2 | -1.23 ± 0.16 | -1.58 ± 0.12 | -2.39 ± 0.034 | -1.95 ± 0.3 | -1.12 ± 0.45 | -1.51 ± 0.7 | 0.44 ± 0.38 | –
2 | O=C=NCCCCCCN=C=O [1,6-Diisocyanatohexane] | -1.38 ± 0.69 | -0.852 ± 1.4 | 0.3 ± 0.43 | -0.656 ± 0.29 | 0.0821 ± 0.041 | 0.975 ± 0.72 | 0.748 ± 0.51 | 0.578 ± 0.58 | –
3 | Oc1ccccc1O [1,2-Benzenediol] | -1.86 ± 1.3 | -1.713 ± 0.01 | -1.94 ± 0.18 | -2.41 ± 0.4 | -2.9 ± 0.69 | -2.31 ± 0.29 | -1.42 ± 0.88 | -0.0267 ± 0.61 | –
4 | CC1(C)C(=O)NC(=O)N1CO [1-(Hydroxymethyl)-5,5-dimethylhydantoin] | -1.56 ± 1.1 | -1.1 ± 1.7 | -1.77 ± 0.95 | -1.77 ± 0.48 | -1.55 ± 0.76 | -1.08 ± 0.36 | -0.999 ± 0.29 | 0.312 ± 0.47 | –
5 | COc1ccc2c(c1)c(CC(=O)O)c(C)n2C(=O)c1ccc(Cl)cc1 [1-(p-Chlorobenzoyl)-5-methoxy-2-methyl-Indole-3-acetic acid] | -0.418 ± 0.2 | -0.408 ± 0.23 | -0.399 ± 0.2 | 0.493 ± 0.042 | 0.818 ± 0.36 | 0.284 ± 0.81 | 0.637 ± 0.53 | 1.2 ± 0.22 | –
6 | c1ccc(C[n+]2cccc3ccccc32)cc1 [1-Benzylquinolinium chloride] | – | – | – | – | – | – | – | – | LDH release cytotoxicity (0.0327296 µM): -1.88 ± 0.03%; LDH release cytotoxicity (0.1035 µM): -1.6 ± 0.26%; LDH release cytotoxicity (0.327296 µM): -1.47 ± 1.5%; LDH release cytotoxicity (1.035 µM): -1.94 ± 0.25%; LDH release cytotoxicity (3.27296 µM): -1.92 ± 0.61%; LDH release cytotoxicity (10.35 µM): -0.779 ± 0.81%; LDH release cytotoxicity (32.729574 µM): 0.264 ± 0.71%; LDH release cytotoxicity (103.5 µM): -1.31 ± 1.1%
7 | O=[N+]([O-])c1ccc(Cl)cc1 [1-Chloro-4-nitrobenzene] | -0.012 ± 0.35 | -0.728 ± 0.66 | 0.037 ± 0.14 | -0.523 ± 0.12 | -0.0534 ± 0.38 | 0.685 ± 0.47 | 5.08 ± 0.88 | 18 ± 1.8 | –
8 | CCCCCCCCCCO [1-Decanol] | -1.47 ± 0.66 | -2.45 ± 1 | -1.67 ± 0.81 | -2.76 ± 0.3 | -1.79 ± 1 | -1.21 ± 0.22 | -0.773 ± 0.89 | 0.757 ± 0.16 | –
9 | CCCCCCCCCCCCO [1-Dodecanol] | – | -0.16 ± 8 | – | -2.62 ± 3.8 | -2.27 ± 3.2 | -0.892 ± 4.2 | -1.67 ± 1 | -0.399 ± 1.2 | LDH release cytotoxicity (0.031623 µM): -3.98 ± 0.71%; LDH release cytotoxicity (0.316228 µM): -2.69 ± 2.2%
10 | CCCCCCCCCCCCN1CCCC1=O [1-Dodecyl-2-pyrrolidinone] | – | -0.917 ± 1.2 | – | -2.75 ± 1 | -3.37 ± 2 | -2.86 ± 0.27 | -2.4 ± 0.15 | 0.295 ± 0.75 | LDH release cytotoxicity (0.031623 µM): -0.38 ± 1.3%; LDH release cytotoxicity (0.316228 µM): -3 ± 1.8%
11 | CCCCCCCCCCCCCCCCO [1-Hexadecanol] | – | – | – | – | – | – | – | – | LDH release cytotoxicity (0.0320971 µM): -2.16 ± 0.6%; LDH release cytotoxicity (0.1015 µM): -2.95 ± 0.21%; LDH release cytotoxicity (0.320971 µM): -2.48 ± 0.093%; LDH release cytotoxicity (1.015 µM): -3.51 ± 0.26%; LDH release cytotoxicity (3.2097118 µM): -3.1 ± 0.27%; LDH release cytotoxicity (10.15 µM): -2.1 ± 0.81%; LDH release cytotoxicity (32.0971 µM): -1.56 ± 0.39%; LDH release cytotoxicity (101.5 µM): 3.36 ± 0.21%
12 | Oc1ccc2ccc3cccc4ccc1c2c34 [1-Hydroxypyrene] | -0.176 ± 0.49 | -0.855 ± 0.05 | -1.52 ± 0.41 | -1.23 ± 0.16 | -1.18 ± 0.77 | -0.495 ± 0.78 | -0.838 ± 0.25 | 0.111 ± 0.6 | –
13 | COCC(C)O (configuration not stated) [1-Methoxy-2-propanol] | -0.68 ± 0.076 | -1.18 ± 1.1 | -1.53 ± 0.67 | -1.81 ± 0.6 | -1.09 ± 0.06 | -0.197 ± 0.52 | -0.477 ± 0.073 | 0.469 ± 0.036 | –
14 | Cn1cc(-c2ccccc2)c(=O)c(-c2cccc(C(F)(F)F)c2)c1 [1-Methyl-3-phenyl-5-(3-(trifluoromethyl)phenyl)-4-pyridone] | – | – | – | – | – | – | – | – | LDH release cytotoxicity (0.02893 µM): -1.78 ± 0.74%; LDH release cytotoxicity (0.0915 µM): -1.31 ± 0.83%; LDH release cytotoxicity (0.289348 µM): -1.94 ± 0.24%; LDH release cytotoxicity (0.915 µM): -2.56 ± 0.53%; LDH release cytotoxicity (2.89348 µM): -2.08 ± 0.3%; LDH release cytotoxicity (9.15 µM): -2.29 ± 0.32%; LDH release cytotoxicity (28.9348 µM): -1.81 ± 0.048%; LDH release cytotoxicity (91.5 µM): 20.3 ± 0.7%
15 | Cc1cccc2ccccc12 [1-Methylnaphthalene] | – | -2.7 ± 0.83 | – | -3.13 ± 0.52 | -2.9 ± 0.43 | -2.97 ± 0.64 | -1.66 ± 0.63 | 13.3 ± 7.7 | LDH release cytotoxicity (0.031623 µM): -2.15 ± 0.06%; LDH release cytotoxicity (0.316228 µM): -2.77 ± 1.2%
16 | CCCCCCCCO [1-Octanol] | -0.769 ± 1 | -1.52 ± 0.36 | -0.614 ± 0.069 | -1.76 ± 0.5 | -2.15 ± 1.1 | -1.49 ± 0.68 | 1.06 ± 0.25 | 2.86 ± 2.5 | –
17 | CCCCCCCCCCCCCCCO [1-Pentadecanol] | 0.0106 ± 0.14 | -0.465 ± 0.06 | 0.131 ± 0.74 | -0.574 ± 0.11 | 0.207 ± 0.55 | 0.233 ± 0.26 | 0.338 ± 0.26 | 2.58 ± 0.24 | –
18 | CCCCCCCCCCCCCCO [1-Tetradecanol] | -1.1 ± 0.46 | -2.17 ± 0.9 | -0.313 ± 1 | -2.29 ± 0.65 | -2.1 ± 0.054 | -1.49 ± 0.62 | -1.69 ± 0.017 | 6.5 ± 2.2 | –
19 | C=CCCCCCCCCCCCC [1-Tetradecene] | – | -3.45 ± 0.87 | – | -4.65 ± 0.72 | -3.81 ± 0.5 | -4.29 ± 0.17 | -4.23 ± 0.41 | -4.05 ± 0.7 | LDH release cytotoxicity (0.031623 µM): -1.3 ± 1.6%; LDH release cytotoxicity (0.316228 µM): -3.94 ± 1.4%
